The source of these data is the supplement of paper PMC10307832.

One assay has as its system NCI-H1437. In words: relative viability (nuclei count vs DMSO), 5 days (fraction); higher = more cells survive. The note with it: first compound 0.08 µM. The method in brief:
(§1)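 Relative viability equals treated-well nuclei counts divided by vehicle-well nuclei counts. Counts came from 4× images of lung cancer cell lines grown in 1536-well plates for 5 days after pin-tool dosing on the day after seeding. Dosing used one drug alone or a fixed anchor-drug dose plus five library-drug doses (not always all listed) in √10 steps, and values are medians of duplicate plates.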
`CCCCCCCCCCCC1=C(O)C(=O)C=C(O)C1=O` [Embelin] + O=C(CCCCCCC(=O)Nc1ccccc1)NO [Vorinostat] (partner 1 µM) returned a relative viability of 0.83.
Still for that read-out and setting: next, `CCCCCCCCCCCC1=C(O)C(=O)C=C(O)C1=O` [Embelin] + Cc1cc(Nc2cc(N3CCN(C)CC3)nc(Sc3ccc(NC(=O)C4CC4)cc3)n2)n[nH]1 [Tozasertib] (partner 0.1 µM): 0.41; `CCCCCCCCCCCC1=C(O)C(=O)C=C(O)C1=O` [Embelin] + COc1cc2c(Oc3ccc(NC(=O)C4(C(=O)Nc5ccc(F)cc5)CC4)cc3F)ccnc2cc1OCCCN1CCOCC1 [Foretinib] (partner 0.25 µM): 1.25.
As for `CCCCCCCCCCCC1=C(O)C(=O)C=C(O)C1=O` [Embelin] + CS(=O)(=O)N1CCN(Cc2cc3nc(-c4cccc5[nH]ncc45)nc(N4CCOCC4)c3s2)CC1 [Pictilisib] (partner 1 µM), the relative viability is 0.469.
Consider `CCCCCCCCCCCC1=C(O)C(=O)C=C(O)C1=O` [Embelin] + C[C@@H](Oc1cc(-c2cnn(C3CCNCC3)c2)cnc1N)c1c(Cl)ccc(F)c1Cl [Crizotinib] (partner 1 µM), for which the relative viability turned out to be 0.988.

Staying with this assay, now noted: first compound 0.8 µM.
As to `CCCCCCCCCCCC1=C(O)C(=O)C=C(O)C1=O` [Embelin] + O=C(CCCCCCC(=O)Nc1ccccc1)NO [Vorinostat] (partner 1 µM), the relative viability came to 0.943.
For the molecule `CCCCCCCCCCCC1=C(O)C(=O)C=C(O)C1=O` [Embelin] + Cc1cc(Nc2cc(N3CCN(C)CC3)nc(Sc3ccc(NC(=O)C4CC4)cc3)n2)n[nH]1 [Tozasertib] (partner 0.1 µM), the relative viability worked out at 0.417.
As for `CCCCCCCCCCCC1=C(O)C(=O)C=C(O)C1=O` [Embelin] + COc1cc2c(Oc3ccc(NC(=O)C4(C(=O)Nc5ccc(F)cc5)CC4)cc3F)ccnc2cc1OCCCN1CCOCC1 [Foretinib] (partner 0.25 µM), the relative viability amounted to 1.24.
Same read-out and setting: the result for `CCCCCCCCCCCC1=C(O)C(=O)C=C(O)C1=O` [Embelin] + CS(=O)(=O)N1CCN(Cc2cc3nc(-c4cccc5[nH]ncc45)nc(N4CCOCC4)c3s2)CC1 [Pictilisib] (partner 1 µM) reads 0.48.
With `CCCCCCCCCCCC1=C(O)C(=O)C=C(O)C1=O` [Embelin] + C[C@@H](Oc1cc(-c2cnn(C3CCNCC3)c2)cnc1N)c1c(Cl)ccc(F)c1Cl [Crizotinib] (partner 1 µM), the relative viability amounted to 0.898.

Staying with this assay, now noted: first compound 2.53 µM.
Regarding `CCCCCCCCCCCC1=C(O)C(=O)C=C(O)C1=O` [Embelin] + O=C(CCCCCCC(=O)Nc1ccccc1)NO [Vorinostat] (partner 1 µM), the relative viability amounted to 0.853.
Molecule `CCCCCCCCCCCC1=C(O)C(=O)C=C(O)C1=O` [Embelin] + Cc1cc(Nc2cc(N3CCN(C)CC3)nc(Sc3ccc(NC(=O)C4CC4)cc3)n2)n[nH]1 [Tozasertib] (partner 0.1 µM) yielded a relative viability of 0.457.
Still for that read-out and setting: the result for `CCCCCCCCCCCC1=C(O)C(=O)C=C(O)C1=O` [Embelin] + COc1cc2c(Oc3ccc(NC(=O)C4(C(=O)Nc5ccc(F)cc5)CC4)cc3F)ccnc2cc1OCCCN1CCOCC1 [Foretinib] (partner 0.25 µM) reads 1.27.
Turning to `CCCCCCCCCCCC1=C(O)C(=O)C=C(O)C1=O` [Embelin] + CS(=O)(=O)N1CCN(Cc2cc3nc(-c4cccc5[nH]ncc45)nc(N4CCOCC4)c3s2)CC1 [Pictilisib] (partner 1 µM), the relative viability was found to be 0.5.
For the molecule `CCCCCCCCCCCC1=C(O)C(=O)C=C(O)C1=O` [Embelin] + C[C@@H](Oc1cc(-c2cnn(C3CCNCC3)c2)cnc1N)c1c(Cl)ccc(F)c1Cl [Crizotinib] (partner 1 µM), the relative viability stood at 1.01.

The same assay, now with this note: first compound 8 µM.
`CCCCCCCCCCCC1=C(O)C(=O)C=C(O)C1=O` [Embelin] + O=C(CCCCCCC(=O)Nc1ccccc1)NO [Vorinostat] (partner 1 µM) displayed a relative viability of 0.392.
`CCCCCCCCCCCC1=C(O)C(=O)C=C(O)C1=O` [Embelin] + Cc1cc(Nc2cc(N3CCN(C)CC3)nc(Sc3ccc(NC(=O)C4CC4)cc3)n2)n[nH]1 [Tozasertib] (partner 0.1 µM) came in with a relative viability of 0.448.
The molecule `CCCCCCCCCCCC1=C(O)C(=O)C=C(O)C1=O` [Embelin] + COc1cc2c(Oc3ccc(NC(=O)C4(C(=O)Nc5ccc(F)cc5)CC4)cc3F)ccnc2cc1OCCCN1CCOCC1 [Foretinib] (partner 0.25 µM) registered a relative viability of 1.06.
As for `CCCCCCCCCCCC1=C(O)C(=O)C=C(O)C1=O` [Embelin] + CS(=O)(=O)N1CCN(Cc2cc3nc(-c4cccc5[nH]ncc45)nc(N4CCOCC4)c3s2)CC1 [Pictilisib] (partner 1 µM), the relative viability came to 0.364.
On the same count and under the same terms, next, `CCCCCCCCCCCC1=C(O)C(=O)C=C(O)C1=O` [Embelin] + C[C@@H](Oc1cc(-c2cnn(C3CCNCC3)c2)cnc1N)c1c(Cl)ccc(F)c1Cl [Crizotinib] (partner 1 µM): 0.452.

A further assay relates to LU99A. The assay is described as above. The note with it: first compound 0.08 µM. The method in brief:
as §1
As to `CCCCCCCCCCCC1=C(O)C(=O)C=C(O)C1=O` [Embelin] + O=C(CCCCCCC(=O)Nc1ccccc1)NO [Vorinostat] (partner 1 µM), the relative viability turned out to be 0.56.
Same read-out and setting: next, `CCCCCCCCCCCC1=C(O)C(=O)C=C(O)C1=O` [Embelin] + Cc1cc(Nc2cc(N3CCN(C)CC3)nc(Sc3ccc(NC(=O)C4CC4)cc3)n2)n[nH]1 [Tozasertib] (partner 0.1 µM): 0.331; `CCCCCCCCCCCC1=C(O)C(=O)C=C(O)C1=O` [Embelin] + COc1cc2c(Oc3ccc(NC(=O)C4(C(=O)Nc5ccc(F)cc5)CC4)cc3F)ccnc2cc1OCCCN1CCOCC1 [Foretinib] (partner 0.25 µM): 0.907.
Molecule `CCCCCCCCCCCC1=C(O)C(=O)C=C(O)C1=O` [Embelin] + CS(=O)(=O)N1CCN(Cc2cc3nc(-c4cccc5[nH]ncc45)nc(N4CCOCC4)c3s2)CC1 [Pictilisib] (partner 1 µM) showed a relative viability of 0.393.
As for `CCCCCCCCCCCC1=C(O)C(=O)C=C(O)C1=O` [Embelin] + C[C@@H](Oc1cc(-c2cnn(C3CCNCC3)c2)cnc1N)c1c(Cl)ccc(F)c1Cl [Crizotinib] (partner 1 µM), the relative viability turned out to be 0.605.

The assay is the same for the next values; noted with them: first compound 0.8 µM.
Turning to `CCCCCCCCCCCC1=C(O)C(=O)C=C(O)C1=O` [Embelin] + O=C(CCCCCCC(=O)Nc1ccccc1)NO [Vorinostat] (partner 1 µM), the relative viability is 0.461.
`CCCCCCCCCCCC1=C(O)C(=O)C=C(O)C1=O` [Embelin] + Cc1cc(Nc2cc(N3CCN(C)CC3)nc(Sc3ccc(NC(=O)C4CC4)cc3)n2)n[nH]1 [Tozasertib] (partner 0.1 µM) registered a relative viability of 0.261.
On the same count and under the same terms, the result for `CCCCCCCCCCCC1=C(O)C(=O)C=C(O)C1=O` [Embelin] + COc1cc2c(Oc3ccc(NC(=O)C4(C(=O)Nc5ccc(F)cc5)CC4)cc3F)ccnc2cc1OCCCN1CCOCC1 [Foretinib] (partner 0.25 µM) reads 0.934; that for `CCCCCCCCCCCC1=C(O)C(=O)C=C(O)C1=O` [Embelin] + CS(=O)(=O)N1CCN(Cc2cc3nc(-c4cccc5[nH]ncc45)nc(N4CCOCC4)c3s2)CC1 [Pictilisib] (partner 1 µM), 0.334.
Turning to `CCCCCCCCCCCC1=C(O)C(=O)C=C(O)C1=O` [Embelin] + C[C@@H](Oc1cc(-c2cnn(C3CCNCC3)c2)cnc1N)c1c(Cl)ccc(F)c1Cl [Crizotinib] (partner 1 µM), the relative viability worked out at 0.736.
